The record followed here is patent US12268674B2, “Mi-2β inhibitor as an immunotherapy agent” (BioVentures, LLC, priority 2021, dated 2025).

What all share (assay): ATPase profile (ATP acyl phosphate probe)
Assay type in all cases: binding

The target of one experiment is T1, ASNA1 (Homo sapiens, UniProt O43681).
T1 construct: to get the native cell lysate; host or cells: A375 cell lysate

The target of another experiment is T2, CCT7 (Homo sapiens, UniProt Q99832).
T2 construct: host or cells: A375 cell lysate
Particulars: CCT7, SEQ ID NO: 55, ATP BS.

The target of a further experiment is T3, DERA (Homo sapiens, UniProt Q9Y315).
T3 construct: endogenous in cells; host or cells: A375 cell lysate
Particulars: SEQ ID NO: 71, ATP BS.

The target of a further experiment is T4, NDUFA10 (Homo sapiens, UniProt O95299).
T4 construct: to get the native cell lysate; endogenous in cells; host or cells: A375
Particulars: NDUFA10, SEQ ID NO: 132, ATP BS.

The next experiment has as its target T5, NTPCR (Homo sapiens, UniProt Q9BSD7).
T5 construct: to get the native cell lysate; endogenous in cells; host or cells: A375
Particulars: SEQ ID NO: 141, ATP BS.

The target of the next experiment is T6, SNRNP200 (Homo sapiens, UniProt O75643).
T6 construct: to get the native cell lysate; endogenous in cells; host or cells: A375 cell lysate
Particulars: SNRNP200, SEQ ID NO: 196, ATP BS.

Another experiment concerns the target T7, UBA3 (Homo sapiens, UniProt Q8TBC4).
T7 construct: to get the native cell lysate; endogenous in cells; host or cells: A375 cell lysate
Particulars: UBA3, SEQ ID NO: 220, ATP BS.

In the next experiment the target is T8, VCP (Homo sapiens, UniProt P55072).
T8 construct: to get the native cell lysate; endogenous in cells; host or cells: A375 cell lysate

The next experiment concerns the target T9, XRCC6 (Homo sapiens, UniProt P12956).
T9 construct: to get the native cell lysate; endogenous in cells; host or cells: A375 cell lysate
Particulars: XRCC6, SEQ ID NO: 232, ATP BS.

SMILES strings stand for the structures.

T8 sequence (P55072 2-806 limits assumed): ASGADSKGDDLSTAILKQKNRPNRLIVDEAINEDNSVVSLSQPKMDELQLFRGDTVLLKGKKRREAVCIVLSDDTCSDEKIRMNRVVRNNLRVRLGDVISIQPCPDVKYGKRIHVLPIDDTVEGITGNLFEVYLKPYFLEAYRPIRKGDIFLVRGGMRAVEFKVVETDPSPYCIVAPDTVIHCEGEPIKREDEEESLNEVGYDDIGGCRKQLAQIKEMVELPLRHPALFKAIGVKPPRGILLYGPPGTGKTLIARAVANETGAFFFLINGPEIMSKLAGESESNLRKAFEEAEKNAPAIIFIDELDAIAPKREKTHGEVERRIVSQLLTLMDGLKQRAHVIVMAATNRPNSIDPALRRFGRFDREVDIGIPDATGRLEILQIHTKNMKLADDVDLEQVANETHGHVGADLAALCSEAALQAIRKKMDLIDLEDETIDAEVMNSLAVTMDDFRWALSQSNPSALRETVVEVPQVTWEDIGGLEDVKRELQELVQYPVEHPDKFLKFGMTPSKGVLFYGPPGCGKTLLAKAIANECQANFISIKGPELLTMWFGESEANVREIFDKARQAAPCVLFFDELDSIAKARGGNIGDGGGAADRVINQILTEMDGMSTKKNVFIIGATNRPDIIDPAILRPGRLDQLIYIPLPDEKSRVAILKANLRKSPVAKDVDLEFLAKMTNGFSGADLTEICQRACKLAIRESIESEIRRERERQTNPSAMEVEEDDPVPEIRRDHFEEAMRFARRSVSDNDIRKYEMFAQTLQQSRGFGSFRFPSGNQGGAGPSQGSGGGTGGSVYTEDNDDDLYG
T1 sequence (O43681 whole entry): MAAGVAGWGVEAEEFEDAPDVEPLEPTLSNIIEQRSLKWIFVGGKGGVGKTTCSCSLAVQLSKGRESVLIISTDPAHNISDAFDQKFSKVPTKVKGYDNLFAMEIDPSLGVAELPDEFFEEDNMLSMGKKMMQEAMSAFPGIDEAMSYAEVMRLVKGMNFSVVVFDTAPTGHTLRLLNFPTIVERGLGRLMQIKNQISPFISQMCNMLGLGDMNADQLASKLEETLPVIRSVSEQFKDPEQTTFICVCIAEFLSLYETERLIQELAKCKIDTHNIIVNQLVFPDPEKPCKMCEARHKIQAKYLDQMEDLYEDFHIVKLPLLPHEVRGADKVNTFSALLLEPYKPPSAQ
T6 sequence (O75643 whole entry): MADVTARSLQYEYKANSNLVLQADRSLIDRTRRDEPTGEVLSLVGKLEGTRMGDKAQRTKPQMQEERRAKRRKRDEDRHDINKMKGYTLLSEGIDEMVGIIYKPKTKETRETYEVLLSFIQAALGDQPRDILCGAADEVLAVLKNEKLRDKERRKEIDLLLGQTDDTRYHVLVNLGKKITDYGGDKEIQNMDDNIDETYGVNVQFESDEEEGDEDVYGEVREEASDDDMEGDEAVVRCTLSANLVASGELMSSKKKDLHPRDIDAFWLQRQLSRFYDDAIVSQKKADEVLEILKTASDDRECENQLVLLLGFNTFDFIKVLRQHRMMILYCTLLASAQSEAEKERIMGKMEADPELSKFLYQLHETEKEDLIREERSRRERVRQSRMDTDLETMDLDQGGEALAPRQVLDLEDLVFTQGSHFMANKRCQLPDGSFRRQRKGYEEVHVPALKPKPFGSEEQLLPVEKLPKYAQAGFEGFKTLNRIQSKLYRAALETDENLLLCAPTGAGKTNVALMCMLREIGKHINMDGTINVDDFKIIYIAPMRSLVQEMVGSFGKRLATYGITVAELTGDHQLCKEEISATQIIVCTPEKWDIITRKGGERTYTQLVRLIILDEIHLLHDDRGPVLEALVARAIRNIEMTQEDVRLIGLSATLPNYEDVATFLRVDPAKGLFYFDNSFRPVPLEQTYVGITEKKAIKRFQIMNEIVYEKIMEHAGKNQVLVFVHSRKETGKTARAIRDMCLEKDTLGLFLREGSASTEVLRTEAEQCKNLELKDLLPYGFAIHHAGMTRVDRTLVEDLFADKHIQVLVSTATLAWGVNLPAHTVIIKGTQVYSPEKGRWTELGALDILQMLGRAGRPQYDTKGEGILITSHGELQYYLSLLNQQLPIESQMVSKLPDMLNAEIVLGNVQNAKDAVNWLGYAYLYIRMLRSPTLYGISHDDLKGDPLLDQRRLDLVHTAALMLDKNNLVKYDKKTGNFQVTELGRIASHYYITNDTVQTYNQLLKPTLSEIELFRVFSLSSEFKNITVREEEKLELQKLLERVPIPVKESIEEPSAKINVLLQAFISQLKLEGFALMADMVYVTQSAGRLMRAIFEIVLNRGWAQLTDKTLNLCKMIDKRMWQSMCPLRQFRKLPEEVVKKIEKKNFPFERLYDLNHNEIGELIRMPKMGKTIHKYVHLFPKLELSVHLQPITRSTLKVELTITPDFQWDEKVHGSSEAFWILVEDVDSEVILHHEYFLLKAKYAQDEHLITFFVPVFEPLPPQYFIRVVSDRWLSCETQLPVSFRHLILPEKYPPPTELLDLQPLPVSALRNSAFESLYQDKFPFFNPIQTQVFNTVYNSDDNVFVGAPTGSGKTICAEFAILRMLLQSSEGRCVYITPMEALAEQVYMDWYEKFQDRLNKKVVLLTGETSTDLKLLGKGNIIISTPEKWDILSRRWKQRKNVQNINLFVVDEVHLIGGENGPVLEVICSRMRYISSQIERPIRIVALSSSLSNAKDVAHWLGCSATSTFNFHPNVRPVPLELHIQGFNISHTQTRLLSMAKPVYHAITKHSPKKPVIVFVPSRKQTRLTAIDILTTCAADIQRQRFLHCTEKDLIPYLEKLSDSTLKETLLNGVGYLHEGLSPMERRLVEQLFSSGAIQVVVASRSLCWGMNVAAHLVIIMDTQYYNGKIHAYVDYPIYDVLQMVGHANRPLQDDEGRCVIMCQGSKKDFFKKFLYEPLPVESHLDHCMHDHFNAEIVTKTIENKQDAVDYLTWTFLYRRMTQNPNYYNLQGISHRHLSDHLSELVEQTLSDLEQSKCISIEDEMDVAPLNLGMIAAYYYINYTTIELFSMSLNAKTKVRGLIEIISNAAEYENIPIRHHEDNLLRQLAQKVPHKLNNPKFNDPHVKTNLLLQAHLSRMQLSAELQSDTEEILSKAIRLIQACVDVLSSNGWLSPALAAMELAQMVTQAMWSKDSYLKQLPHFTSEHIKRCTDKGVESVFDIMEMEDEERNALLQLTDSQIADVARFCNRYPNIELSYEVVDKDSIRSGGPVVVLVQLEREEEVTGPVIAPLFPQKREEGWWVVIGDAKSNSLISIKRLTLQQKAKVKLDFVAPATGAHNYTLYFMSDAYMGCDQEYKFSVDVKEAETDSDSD
T3 sequence (Q9Y315 whole entry): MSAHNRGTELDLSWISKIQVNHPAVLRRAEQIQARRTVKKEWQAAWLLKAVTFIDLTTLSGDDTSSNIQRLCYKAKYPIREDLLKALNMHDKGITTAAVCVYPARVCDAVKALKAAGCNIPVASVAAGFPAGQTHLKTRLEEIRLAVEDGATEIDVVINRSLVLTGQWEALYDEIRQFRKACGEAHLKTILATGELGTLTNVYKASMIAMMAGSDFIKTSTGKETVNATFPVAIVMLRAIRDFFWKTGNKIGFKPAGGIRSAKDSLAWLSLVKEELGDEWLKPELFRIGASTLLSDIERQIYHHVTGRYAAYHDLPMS
T5 sequence (Q9BSD7 whole entry): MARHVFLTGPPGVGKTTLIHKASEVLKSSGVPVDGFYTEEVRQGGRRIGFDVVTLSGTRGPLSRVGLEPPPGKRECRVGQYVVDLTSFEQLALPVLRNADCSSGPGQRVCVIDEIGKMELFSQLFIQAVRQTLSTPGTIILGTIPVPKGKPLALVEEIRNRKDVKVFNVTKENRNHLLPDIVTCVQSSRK
T4 sequence (O95299 36-355): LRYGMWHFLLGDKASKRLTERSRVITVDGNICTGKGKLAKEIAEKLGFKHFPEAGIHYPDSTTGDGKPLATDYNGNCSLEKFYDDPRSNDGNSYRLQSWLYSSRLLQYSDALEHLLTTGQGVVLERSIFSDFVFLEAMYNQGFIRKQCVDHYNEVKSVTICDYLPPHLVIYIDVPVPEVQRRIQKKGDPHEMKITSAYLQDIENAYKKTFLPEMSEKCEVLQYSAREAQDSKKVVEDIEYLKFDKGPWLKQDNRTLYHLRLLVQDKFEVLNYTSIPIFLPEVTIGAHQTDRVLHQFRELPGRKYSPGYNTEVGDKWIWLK

With `Cn1c(=O)[nH]c2ccc(-c3cccc(C(=O)NC4CCn5ccnc5C4)c3)cc21` (stereo not shown) [Z36-MP5, 3-(3-methyl-2-oxo-2,3-dihydro-1H-benzo[d]imidazol-5-yl)-N-(5,6,7,8-tetrahydroimidazo[1,2-a]pyridin-7-yl)benzamide], the “Inhibition (%) by 1 μM Z36-MP5” value at ASNA1 (ASNA1, SEQ ID NO: 41, ATP BS) was −3.04%; at ASNA1 (ASNA1, SEQ ID NO: 42, ATP BS), 0.73%; at CCT7, 10.91%; at DERA, 6.01%; on NDUFA10, 14.09%; at NTPCR, −14.99%. Besides, the “Inhibition (%) by 1 μM Z36-MP5” value at SNRNP200 is −14.27%; on UBA3, −11.62%; at VCP (SEQ ID NO: 225, ATP BS) it was −8.02%; on VCP (SEQ ID NO: 226, ATP BS), −2.36%; on VCP (SEQ ID NO: 227, ATP BS), −7.20%; on VCP (SEQ ID NO: 228, ATP BS) it was 7.80%. Further, at XRCC6, the “Inhibition (%) by 1 μM Z36-MP5” value amounted to 10.61%.
